Literature values as cited in patent publication US20070093743A1, “Iontophoresis Drug Delivery Device Providing Acceptable Depth and Duration of Dermal Anesthesia” (Vyteris, Inc., priority 2005, published 2007).

Details: iontophoresis in vitro across human skin

cumulative delivery compared with lidocaine | Compound
slightly greater delivery | CCCNC(C)C(=O)Nc1ccccc1C (stereo not drawn) [prilocaine]
slightly greater delivery | CCN(CC)CCOC(=O)c1ccc(N)cc1 [procaine]
slightly greater delivery | CCCN(CC)C(CC)C(=O)Nc1c(C)cccc1C (stereo not drawn) [etidocaine]
